Results: ChEMBL document CHEMBL1201862, “PubChem BioAssay data set” (2004)
Calls of active or inactive are those of the source. Cut-off read from the data, not from the text of the source, for most assays here: actives have a measured IC50 and inactives only a lower limit.

Experiments:
Type in all cases: functional
[1] = target: 26S proteasome non-ATPase regulatory subunit 14 (Homo sapiens, UniProt O00487); test: inhibition of proteasome subunit RPN11 – biochemical, fluorescence polarization, uHTS hits, confirmation (AID 602368)
[2] = target: 72 kDa type IV collagenase (Homo sapiens, UniProt P08253); test: Dose Response validation of uHTS RPN11 inhibitor hits using a MMP-2 Fluorescence assay.
Prothrombin = Prothrombin (Bos taurus, UniProt P00735); test: thrombin protease inhibitors – biochemical, fluorescence polarization, uHTS hits, dose response (AID 602369)
[3] = target: T1, Sentrin-specific protease 8 (Homo sapiens, UniProt Q96LD8); test: inhibition of human SENP8 cleavage activity – biochemical, luminescence, SAR follow-up (AID 504501)
T1 sequence (Q96LD8 whole entry): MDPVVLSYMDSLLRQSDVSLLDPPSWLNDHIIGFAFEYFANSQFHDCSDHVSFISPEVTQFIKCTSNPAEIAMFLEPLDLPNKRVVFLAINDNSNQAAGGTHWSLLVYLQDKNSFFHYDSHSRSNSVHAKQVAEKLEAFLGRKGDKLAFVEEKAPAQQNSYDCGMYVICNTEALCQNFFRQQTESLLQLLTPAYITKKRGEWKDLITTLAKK

Caspase-3 = target: T2, Caspase-3 (Homo sapiens, UniProt P42574); test: SAR Analysis of small molecule inhibitors of Sentrin-specific proteases (SENPs) using a Caspase-3 Selectivity assay. [Related pubchem assays (depositor defined):AID2540, AID2599, AID434973, AID489001]
T2 sequence (P42574 whole entry): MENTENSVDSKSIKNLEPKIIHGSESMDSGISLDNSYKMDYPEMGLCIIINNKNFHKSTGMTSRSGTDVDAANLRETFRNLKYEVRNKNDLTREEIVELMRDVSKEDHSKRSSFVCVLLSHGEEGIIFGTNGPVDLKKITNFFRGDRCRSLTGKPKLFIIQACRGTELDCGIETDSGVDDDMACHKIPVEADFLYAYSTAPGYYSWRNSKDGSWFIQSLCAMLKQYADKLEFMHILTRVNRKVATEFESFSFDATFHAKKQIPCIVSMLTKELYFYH

[4] = target: T3, Sentrin-specific protease 6 (Homo sapiens, UniProt Q9GZR1); test: SAR Analysis of small molecule inhibitors of Sentrin-specific protease 6 (SENP6) using a Luminescent assay. [Related pubchem assays (depositor defined):AID2582, AID2599]
T3 sequence (Q9GZR1 whole entry): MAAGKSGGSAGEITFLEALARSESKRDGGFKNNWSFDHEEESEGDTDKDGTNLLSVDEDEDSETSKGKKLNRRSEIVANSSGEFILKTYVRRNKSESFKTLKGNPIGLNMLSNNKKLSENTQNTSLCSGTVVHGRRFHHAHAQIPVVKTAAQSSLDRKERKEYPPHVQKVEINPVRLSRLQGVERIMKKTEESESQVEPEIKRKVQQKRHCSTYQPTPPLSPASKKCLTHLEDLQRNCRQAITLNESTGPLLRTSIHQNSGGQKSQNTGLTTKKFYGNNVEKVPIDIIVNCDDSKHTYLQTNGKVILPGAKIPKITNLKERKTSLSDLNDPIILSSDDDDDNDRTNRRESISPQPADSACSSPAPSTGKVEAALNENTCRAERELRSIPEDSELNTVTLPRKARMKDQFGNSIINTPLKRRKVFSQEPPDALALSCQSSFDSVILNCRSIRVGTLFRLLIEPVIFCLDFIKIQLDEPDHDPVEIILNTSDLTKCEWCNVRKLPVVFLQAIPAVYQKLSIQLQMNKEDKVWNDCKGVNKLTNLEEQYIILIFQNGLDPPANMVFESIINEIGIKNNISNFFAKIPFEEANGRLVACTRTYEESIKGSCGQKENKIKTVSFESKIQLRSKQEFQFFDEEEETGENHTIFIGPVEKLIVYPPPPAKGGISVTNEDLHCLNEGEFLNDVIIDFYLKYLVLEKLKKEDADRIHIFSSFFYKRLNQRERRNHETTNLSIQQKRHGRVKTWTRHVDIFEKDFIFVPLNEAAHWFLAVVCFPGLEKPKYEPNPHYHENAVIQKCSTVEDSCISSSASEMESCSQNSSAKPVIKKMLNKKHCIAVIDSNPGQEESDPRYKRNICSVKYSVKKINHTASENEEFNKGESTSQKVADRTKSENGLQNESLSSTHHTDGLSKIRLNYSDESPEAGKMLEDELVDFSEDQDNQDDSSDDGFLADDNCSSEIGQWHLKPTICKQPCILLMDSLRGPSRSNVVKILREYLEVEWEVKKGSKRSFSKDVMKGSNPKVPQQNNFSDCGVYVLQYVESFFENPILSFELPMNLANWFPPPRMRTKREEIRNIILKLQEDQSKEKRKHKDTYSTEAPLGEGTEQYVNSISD

[5] = target: T4, Sentrin-specific protease 7 (Homo sapiens, UniProt Q9BQF6); test: inhibition of human SENP7 cleavage activity – biochemical, luminescence, SAR follow-up (AID 504497)
T4 sequence (Q9BQF6 whole entry): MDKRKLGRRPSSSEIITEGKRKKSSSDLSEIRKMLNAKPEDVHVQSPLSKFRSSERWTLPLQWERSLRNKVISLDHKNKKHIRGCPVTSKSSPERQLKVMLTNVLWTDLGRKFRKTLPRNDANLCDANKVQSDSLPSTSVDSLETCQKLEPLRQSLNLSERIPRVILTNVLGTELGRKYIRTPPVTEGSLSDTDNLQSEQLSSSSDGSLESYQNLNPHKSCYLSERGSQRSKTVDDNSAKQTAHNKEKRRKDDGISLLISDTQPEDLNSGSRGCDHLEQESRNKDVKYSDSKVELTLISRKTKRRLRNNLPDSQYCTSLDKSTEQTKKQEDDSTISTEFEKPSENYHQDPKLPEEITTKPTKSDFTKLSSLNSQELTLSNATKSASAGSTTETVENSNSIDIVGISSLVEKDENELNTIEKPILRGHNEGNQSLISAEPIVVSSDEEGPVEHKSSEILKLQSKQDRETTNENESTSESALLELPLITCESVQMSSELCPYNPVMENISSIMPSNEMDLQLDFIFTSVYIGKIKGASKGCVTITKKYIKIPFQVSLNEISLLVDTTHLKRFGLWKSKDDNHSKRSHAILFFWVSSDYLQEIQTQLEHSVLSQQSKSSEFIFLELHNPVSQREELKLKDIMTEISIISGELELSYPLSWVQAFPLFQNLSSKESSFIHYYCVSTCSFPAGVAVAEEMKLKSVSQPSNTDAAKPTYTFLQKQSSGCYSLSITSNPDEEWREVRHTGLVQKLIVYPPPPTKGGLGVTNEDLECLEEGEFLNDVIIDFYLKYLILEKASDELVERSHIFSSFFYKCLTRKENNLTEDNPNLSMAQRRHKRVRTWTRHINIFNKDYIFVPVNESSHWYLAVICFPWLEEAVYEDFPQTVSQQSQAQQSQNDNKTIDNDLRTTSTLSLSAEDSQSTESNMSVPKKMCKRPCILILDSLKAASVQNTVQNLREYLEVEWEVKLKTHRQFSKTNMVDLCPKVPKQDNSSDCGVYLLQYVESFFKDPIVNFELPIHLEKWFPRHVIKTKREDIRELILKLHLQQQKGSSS

[6] = target: T5, Carboxy-terminal domain RNA polymerase II polypeptide A small phosphatase 1 (Homo sapiens, UniProt Q9GZU7); test: CTDSP1 inhibitors, concentration-response, biochemical, absorbance readout, ultra-high-throughput screen actives (AID 540297)
T5 sequence (Q9GZU7 whole entry): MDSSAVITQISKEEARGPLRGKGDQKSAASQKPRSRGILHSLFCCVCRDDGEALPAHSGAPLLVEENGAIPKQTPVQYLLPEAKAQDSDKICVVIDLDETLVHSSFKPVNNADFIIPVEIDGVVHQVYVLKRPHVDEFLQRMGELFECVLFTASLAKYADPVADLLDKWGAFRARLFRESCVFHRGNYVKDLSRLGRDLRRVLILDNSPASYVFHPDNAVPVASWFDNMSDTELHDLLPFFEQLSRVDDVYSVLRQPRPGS

[7] = target: T6, Replicative DNA helicase DnaB (Mycobacterium tuberculosis, UniProt P9WMR3); test: DnaB intein splicing inhibitors, dose response, biochemical, cell-free fluorescence (AID 449749)
T6 sequence (P9WMR3 whole entry): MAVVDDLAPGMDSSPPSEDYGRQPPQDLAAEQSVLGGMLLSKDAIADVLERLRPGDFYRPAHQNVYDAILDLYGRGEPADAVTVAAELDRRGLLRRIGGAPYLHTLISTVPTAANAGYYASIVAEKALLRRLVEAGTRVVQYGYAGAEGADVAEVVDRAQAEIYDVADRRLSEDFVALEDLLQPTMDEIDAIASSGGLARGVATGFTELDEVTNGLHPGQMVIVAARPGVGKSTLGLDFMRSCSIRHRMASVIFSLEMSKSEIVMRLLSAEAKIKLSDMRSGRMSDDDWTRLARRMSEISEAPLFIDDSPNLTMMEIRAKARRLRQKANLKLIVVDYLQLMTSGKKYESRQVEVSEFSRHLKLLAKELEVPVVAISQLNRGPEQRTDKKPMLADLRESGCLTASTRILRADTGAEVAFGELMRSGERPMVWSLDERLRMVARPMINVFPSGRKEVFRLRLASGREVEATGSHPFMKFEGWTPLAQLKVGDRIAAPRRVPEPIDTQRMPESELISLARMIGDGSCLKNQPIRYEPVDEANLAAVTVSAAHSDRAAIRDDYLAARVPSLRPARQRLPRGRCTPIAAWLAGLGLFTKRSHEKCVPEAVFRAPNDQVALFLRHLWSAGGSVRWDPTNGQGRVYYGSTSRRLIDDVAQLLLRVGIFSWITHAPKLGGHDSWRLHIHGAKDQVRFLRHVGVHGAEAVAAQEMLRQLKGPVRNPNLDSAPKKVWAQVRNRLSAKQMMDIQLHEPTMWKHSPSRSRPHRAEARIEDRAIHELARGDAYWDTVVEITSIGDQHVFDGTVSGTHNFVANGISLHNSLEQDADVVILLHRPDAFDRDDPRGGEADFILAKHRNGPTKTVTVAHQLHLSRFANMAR

Protein RecA = target: T7, Protein RecA (Mycobacterium tuberculosis, UniProt P9WHJ3); test: Fluorescence Cell-Free Homogeneous Dose Retest to Identify Inhibitors of RecA-Intein Splicing Activity. [Related pubchem assays (depositor defined):AID2097, AID2223, AID489010, AID492950]
T7 sequence (P9WHJ3 whole entry): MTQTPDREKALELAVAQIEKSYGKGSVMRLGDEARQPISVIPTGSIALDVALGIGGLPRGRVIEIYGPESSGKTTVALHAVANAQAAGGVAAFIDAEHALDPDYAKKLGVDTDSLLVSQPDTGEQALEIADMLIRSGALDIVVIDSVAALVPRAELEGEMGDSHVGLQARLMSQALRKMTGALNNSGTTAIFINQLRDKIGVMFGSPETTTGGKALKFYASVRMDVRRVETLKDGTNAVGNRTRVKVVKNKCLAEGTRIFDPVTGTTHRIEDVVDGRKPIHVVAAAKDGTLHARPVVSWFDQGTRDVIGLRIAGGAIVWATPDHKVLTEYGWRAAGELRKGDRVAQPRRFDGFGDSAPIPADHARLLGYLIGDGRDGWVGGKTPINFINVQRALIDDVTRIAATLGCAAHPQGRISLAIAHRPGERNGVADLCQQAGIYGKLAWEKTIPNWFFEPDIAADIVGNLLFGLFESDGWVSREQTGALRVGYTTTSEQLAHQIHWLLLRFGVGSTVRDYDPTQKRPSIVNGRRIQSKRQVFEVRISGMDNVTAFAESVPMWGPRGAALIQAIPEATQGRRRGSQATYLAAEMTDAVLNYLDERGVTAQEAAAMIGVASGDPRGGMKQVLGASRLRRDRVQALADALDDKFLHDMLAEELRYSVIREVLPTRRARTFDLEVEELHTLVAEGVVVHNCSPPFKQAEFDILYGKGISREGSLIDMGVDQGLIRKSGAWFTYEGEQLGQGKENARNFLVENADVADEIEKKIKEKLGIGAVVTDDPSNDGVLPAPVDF

Chain of 26S proteasome non-ATPase regulatory subunit 14 (O00487 whole entry): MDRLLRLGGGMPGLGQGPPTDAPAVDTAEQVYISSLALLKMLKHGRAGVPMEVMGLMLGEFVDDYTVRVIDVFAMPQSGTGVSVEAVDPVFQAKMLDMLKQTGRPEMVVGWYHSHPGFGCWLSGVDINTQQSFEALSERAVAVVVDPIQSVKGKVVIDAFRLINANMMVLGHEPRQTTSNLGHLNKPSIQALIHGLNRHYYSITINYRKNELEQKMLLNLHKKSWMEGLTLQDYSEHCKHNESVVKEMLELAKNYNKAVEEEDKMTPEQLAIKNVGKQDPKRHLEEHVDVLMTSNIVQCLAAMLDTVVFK
Chain of 72 kDa type IV collagenase (P08253 whole entry): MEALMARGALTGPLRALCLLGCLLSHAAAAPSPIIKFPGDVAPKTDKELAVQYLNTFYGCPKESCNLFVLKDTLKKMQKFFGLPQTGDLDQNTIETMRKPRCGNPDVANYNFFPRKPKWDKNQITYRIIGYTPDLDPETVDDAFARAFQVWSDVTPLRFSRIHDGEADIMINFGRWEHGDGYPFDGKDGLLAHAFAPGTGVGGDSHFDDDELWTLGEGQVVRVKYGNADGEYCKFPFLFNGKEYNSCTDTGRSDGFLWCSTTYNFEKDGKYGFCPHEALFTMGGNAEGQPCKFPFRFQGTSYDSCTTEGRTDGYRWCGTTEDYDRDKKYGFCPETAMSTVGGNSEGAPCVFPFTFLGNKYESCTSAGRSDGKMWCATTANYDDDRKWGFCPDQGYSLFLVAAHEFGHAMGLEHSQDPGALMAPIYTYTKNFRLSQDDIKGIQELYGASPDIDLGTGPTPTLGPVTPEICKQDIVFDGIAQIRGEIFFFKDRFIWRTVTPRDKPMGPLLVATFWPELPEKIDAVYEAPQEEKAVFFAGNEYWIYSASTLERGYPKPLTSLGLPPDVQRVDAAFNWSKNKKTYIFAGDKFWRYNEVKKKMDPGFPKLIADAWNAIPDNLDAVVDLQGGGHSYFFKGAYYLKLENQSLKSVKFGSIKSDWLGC

| Structure (SMILES) | IC50 [1] | IC50 [2] | IC50 (Prothrombin) | IC50 [3] | IC50 (Caspase-3) | IC50 [4] | IC50 [5] | IC50 [6] | AC50 [7] | EC50 (Protein RecA) |
| --- | --- | --- | --- | --- | --- | --- | --- | --- | --- | --- |
| Cc1ccc(C(=O)CSc2cc(C)nc(=O)[nH]2)cc1 | 33.8 µM (active) | 27.9 µM (active) | 47.5 µM (active) |  |  |  |  |  |  |  |
| FC(F)(F)c1ccc(N/N=C/c2c[nH]c3ccccc23)cc1 |  |  |  | > 99 µM (inactive) | > 99 µM (inactive) | > 99 µM (inactive) | > 99 µM (inactive) |  |  |  |
| CC(=O)Nc1ccc(/C(C)=N/NC(=O)c2ccc(COc3ccccc3Cl)o2)cc1 | 24.8 µM (active) | > 100 µM (inactive) | 43.6 µM (active) |  |  |  |  | 7.9 µM (active) |  |  |
| COc1ccc(CCC(=O)Nc2ccc(-c3noc(/C=C/c4ccccc4)n3)cc2)cc1 |  |  |  | > 99 µM (inactive) | > 99 µM (inactive) | > 99 µM (inactive) | > 99 µM (inactive) |  |  |  |
| CCN(CC)c1ccc(/C=N/Nc2nc(N3CCCC3)nc(N3CCCC3)n2)cc1 |  |  |  | > 99 µM (inactive) | > 99 µM (inactive) | > 99 µM (inactive) | > 99 µM (inactive) |  |  |  |
| O=C(O)CN1C(=O)/C(=C\c2ccc(OC(=O)c3ccco3)cc2)SC1=S | 25.4 µM (active) | > 100 µM (inactive) | 27.8 µM (active) |  |  |  |  |  | 165 µM (active) | 20.3 µM (active) |
